Results published in ChEMBL document CHEMBL4507295 (2021).

How the values were obtained:
[1] = biological target: Serine/threonine-protein kinase DCLK3 (Homo sapiens) (UniProt Q9C098); settings: Compound concentration 1000.0 nM
[2] = biological target: Aurora kinase B (Homo sapiens) (UniProt Q96GD4); settings: Compound concentration 1000.0 nM
[3] = biological target: T1, 5-hydroxytryptamine receptor 1A (Homo sapiens) (UniProt P08908); settings: Compound concentration 10.0 uM
T1 sequence (whole entry): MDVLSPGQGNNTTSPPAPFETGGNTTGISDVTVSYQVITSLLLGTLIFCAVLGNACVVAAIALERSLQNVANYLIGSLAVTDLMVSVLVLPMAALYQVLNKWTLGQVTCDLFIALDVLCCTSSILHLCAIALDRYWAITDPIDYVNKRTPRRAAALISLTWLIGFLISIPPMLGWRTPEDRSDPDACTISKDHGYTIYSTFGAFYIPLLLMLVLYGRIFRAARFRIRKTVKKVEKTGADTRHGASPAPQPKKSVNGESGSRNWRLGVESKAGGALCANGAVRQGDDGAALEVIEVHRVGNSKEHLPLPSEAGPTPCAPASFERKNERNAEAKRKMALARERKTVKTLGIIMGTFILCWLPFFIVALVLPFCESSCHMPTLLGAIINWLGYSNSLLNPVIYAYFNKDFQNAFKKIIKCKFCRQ

[4] = biological target: Mitogen-activated protein kinase kinase kinase kinase 4 (Homo sapiens) (UniProt O95819); settings: Compound concentration 1000.0 nM
[5] = biological target: Protein kinase C eta type (Homo sapiens) (UniProt P24723); settings: Compound concentration 1000.0 nM
Protein kinase C eta type (Homo sapiens), sequence (P24723 whole entry): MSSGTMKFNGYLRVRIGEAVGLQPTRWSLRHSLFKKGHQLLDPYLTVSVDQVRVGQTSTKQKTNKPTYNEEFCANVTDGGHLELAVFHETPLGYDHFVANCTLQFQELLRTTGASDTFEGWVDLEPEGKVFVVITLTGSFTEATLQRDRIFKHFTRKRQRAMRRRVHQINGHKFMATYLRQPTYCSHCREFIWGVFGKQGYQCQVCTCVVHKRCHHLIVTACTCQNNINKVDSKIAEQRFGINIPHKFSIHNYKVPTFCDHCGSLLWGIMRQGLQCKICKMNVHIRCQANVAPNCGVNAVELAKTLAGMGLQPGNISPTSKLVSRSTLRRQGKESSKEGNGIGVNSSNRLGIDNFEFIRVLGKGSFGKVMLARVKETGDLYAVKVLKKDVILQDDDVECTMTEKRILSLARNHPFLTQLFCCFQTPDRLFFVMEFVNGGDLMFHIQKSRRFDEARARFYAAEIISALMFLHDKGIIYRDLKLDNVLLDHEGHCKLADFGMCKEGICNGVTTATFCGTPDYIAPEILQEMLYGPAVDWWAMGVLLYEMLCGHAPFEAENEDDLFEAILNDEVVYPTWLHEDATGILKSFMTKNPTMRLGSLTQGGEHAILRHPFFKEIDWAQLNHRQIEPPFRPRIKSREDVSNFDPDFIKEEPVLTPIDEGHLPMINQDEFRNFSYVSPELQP

[6] = biological target: Cyclin-dependent kinase 3 (Homo sapiens) (UniProt Q00526); settings: Compound concentration 1000.0 nM
[7] = biological target: Phosphorylase b kinase gamma catalytic chain, skeletal muscle/heart isoform (Homo sapiens) (UniProt Q16816); settings: Compound concentration 1000.0 nM
Phosphorylase b kinase gamma catalytic chain, skeletal muscle/heart isoform (Homo sapiens), sequence (Q16816 whole entry, looked up, canonical isoform): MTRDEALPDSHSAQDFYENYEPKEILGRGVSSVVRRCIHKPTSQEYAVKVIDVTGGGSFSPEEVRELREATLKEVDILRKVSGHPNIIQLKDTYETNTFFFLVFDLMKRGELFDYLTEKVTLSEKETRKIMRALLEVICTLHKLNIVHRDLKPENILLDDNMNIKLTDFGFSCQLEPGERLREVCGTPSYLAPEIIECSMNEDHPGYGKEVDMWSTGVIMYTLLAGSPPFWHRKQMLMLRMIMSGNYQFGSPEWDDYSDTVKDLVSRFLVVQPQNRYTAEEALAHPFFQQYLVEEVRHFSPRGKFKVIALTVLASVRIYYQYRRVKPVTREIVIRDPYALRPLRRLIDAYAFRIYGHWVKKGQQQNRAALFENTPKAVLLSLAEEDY

[8] = biological target: Cyclin-dependent kinase 5 (Homo sapiens) (UniProt Q00535); settings: Compound concentration 1000.0 nM
Cyclin-dependent kinase 5 (Homo sapiens), sequence (Q00535 whole entry, looked up): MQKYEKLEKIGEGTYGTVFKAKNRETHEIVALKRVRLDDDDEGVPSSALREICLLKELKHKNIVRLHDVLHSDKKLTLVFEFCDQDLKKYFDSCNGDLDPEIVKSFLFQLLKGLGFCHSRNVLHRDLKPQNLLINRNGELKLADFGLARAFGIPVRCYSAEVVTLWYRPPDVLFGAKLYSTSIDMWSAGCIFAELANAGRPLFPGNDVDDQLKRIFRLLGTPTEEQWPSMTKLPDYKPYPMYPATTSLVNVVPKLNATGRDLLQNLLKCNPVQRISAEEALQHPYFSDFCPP

[9] = biological target: Mitogen-activated protein kinase 13 (Homo sapiens) (UniProt O15264); settings: Compound concentration 1000.0 nM
[10] = test system: Phosphatidylinositol 4,5-bisphosphate 3-kinase catalytic subunit alpha isoform (Homo sapiens), P42336 [E542K]; settings: Compound concentration 1000.0 nM
[11] = biological target: Serine/threonine-protein kinase Nek4 (Homo sapiens) (UniProt P51957); settings: Compound concentration 1000.0 nM
[12] = biological target: Interleukin-1 receptor-associated kinase 1 (Homo sapiens) (UniProt P51617); settings: Compound concentration 1000.0 nM
[13] = biological target: SRSF protein kinase 2 (Homo sapiens) (UniProt P78362); settings: Compound concentration 1000.0 nM
[14] = biological target: Wee1-like protein kinase 2 (Homo sapiens) (UniProt P0C1S8); settings: Compound concentration 1000.0 nM
[15] = biological target: Tyrosine-protein kinase JAK1 (Homo sapiens) (UniProt P23458); settings: Compound concentration 1000.0 nM
[16] = biological target: Uncharacterized serine/threonine-protein kinase SBK3 (Homo sapiens) (UniProt P0C264); settings: Compound concentration 1000.0 nM
[17] = biological target: Ephrin type-A receptor 2 (Homo sapiens) (UniProt P29317); settings: Compound concentration 1000.0 nM
[18] = biological target: Serine/threonine-protein kinase D3 (Homo sapiens) (UniProt O94806); settings: Compound concentration 1000.0 nM
[19] = biological target: Serine/threonine-protein kinase Nek2 (Homo sapiens) (UniProt P51955); settings: Compound concentration 1000.0 nM
[20] = biological target: Calcium/calmodulin-dependent protein kinase type II subunit alpha (Homo sapiens) (UniProt Q9UQM7); settings: Compound concentration 1000.0 nM
[21] = biological target: Receptor-type tyrosine-protein kinase FLT3 (Homo sapiens) (UniProt P36888); settings: Compound concentration 1000.0 nM
[22] = test system: Mast/stem cell growth factor receptor Kit (Homo sapiens), P10721 [D816H]; settings: Compound concentration 1000.0 nM
[23] = biological target: Serine/threonine-protein kinase LATS2 (Homo sapiens) (UniProt Q9NRM7); settings: Compound concentration 1000.0 nM
Serine/threonine-protein kinase LATS2 (Homo sapiens), sequence (Q9NRM7 whole entry): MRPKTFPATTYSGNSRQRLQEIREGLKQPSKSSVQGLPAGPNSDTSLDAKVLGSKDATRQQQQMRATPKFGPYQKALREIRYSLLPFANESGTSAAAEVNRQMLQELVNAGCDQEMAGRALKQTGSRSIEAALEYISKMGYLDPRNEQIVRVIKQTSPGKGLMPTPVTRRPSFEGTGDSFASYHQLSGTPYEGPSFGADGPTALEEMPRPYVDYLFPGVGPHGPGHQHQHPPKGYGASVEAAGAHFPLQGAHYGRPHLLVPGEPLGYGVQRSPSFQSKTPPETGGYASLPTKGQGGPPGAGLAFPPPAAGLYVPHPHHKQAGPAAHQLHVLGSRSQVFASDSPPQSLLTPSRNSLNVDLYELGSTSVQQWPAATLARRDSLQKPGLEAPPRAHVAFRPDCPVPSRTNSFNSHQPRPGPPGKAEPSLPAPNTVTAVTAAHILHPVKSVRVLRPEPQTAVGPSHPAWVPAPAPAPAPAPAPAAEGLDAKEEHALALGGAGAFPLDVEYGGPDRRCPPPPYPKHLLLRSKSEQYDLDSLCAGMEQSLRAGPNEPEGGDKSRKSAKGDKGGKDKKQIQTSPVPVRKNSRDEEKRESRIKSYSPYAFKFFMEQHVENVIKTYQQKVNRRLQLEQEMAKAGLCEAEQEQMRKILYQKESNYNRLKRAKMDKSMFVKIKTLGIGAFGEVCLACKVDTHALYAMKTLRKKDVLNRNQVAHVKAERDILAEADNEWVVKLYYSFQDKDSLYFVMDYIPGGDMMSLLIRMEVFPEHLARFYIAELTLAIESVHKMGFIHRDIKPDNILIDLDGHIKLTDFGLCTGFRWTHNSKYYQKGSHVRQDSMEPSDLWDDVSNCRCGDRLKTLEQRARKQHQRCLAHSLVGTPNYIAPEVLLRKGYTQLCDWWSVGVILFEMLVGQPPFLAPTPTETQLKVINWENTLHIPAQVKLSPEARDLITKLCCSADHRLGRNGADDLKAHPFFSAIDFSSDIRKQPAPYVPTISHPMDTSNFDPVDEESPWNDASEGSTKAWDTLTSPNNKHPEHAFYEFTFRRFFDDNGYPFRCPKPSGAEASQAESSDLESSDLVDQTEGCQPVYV

[24] = biological target: Activated CDC42 kinase 1 (Homo sapiens) (UniProt Q07912); settings: Compound concentration 1000.0 nM
[25] = biological target: Testis-specific serine/threonine-protein kinase 1 (Homo sapiens) (UniProt Q9BXA7); settings: Compound concentration 1000.0 nM
[26] = biological target: Protein-tyrosine kinase 6 (Homo sapiens) (UniProt Q13882); settings: Compound concentration 1000.0 nM
Protein-tyrosine kinase 6 (Homo sapiens), sequence (Q13882 whole entry, looked up): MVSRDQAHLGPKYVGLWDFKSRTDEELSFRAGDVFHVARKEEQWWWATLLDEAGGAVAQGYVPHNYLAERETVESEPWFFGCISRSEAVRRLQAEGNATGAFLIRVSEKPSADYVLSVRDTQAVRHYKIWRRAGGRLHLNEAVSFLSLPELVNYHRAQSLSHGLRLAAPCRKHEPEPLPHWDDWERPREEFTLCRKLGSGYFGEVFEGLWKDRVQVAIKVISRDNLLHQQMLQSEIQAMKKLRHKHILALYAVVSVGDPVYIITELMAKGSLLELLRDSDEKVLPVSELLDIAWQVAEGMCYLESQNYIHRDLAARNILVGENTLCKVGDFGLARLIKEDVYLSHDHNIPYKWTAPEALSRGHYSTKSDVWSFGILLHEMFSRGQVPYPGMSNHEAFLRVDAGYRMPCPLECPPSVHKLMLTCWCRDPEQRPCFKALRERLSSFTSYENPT

[27] = biological target: Mitogen-activated protein kinase kinase kinase kinase 5 (Homo sapiens) (UniProt Q9Y4K4); settings: Compound concentration 1000.0 nM
[28] = biological target: Fibroblast growth factor receptor 2 (Homo sapiens) (UniProt P21802); settings: Compound concentration 1000.0 nM
Fibroblast growth factor receptor 2 (Homo sapiens), sequence (P21802 22-821 limits assumed): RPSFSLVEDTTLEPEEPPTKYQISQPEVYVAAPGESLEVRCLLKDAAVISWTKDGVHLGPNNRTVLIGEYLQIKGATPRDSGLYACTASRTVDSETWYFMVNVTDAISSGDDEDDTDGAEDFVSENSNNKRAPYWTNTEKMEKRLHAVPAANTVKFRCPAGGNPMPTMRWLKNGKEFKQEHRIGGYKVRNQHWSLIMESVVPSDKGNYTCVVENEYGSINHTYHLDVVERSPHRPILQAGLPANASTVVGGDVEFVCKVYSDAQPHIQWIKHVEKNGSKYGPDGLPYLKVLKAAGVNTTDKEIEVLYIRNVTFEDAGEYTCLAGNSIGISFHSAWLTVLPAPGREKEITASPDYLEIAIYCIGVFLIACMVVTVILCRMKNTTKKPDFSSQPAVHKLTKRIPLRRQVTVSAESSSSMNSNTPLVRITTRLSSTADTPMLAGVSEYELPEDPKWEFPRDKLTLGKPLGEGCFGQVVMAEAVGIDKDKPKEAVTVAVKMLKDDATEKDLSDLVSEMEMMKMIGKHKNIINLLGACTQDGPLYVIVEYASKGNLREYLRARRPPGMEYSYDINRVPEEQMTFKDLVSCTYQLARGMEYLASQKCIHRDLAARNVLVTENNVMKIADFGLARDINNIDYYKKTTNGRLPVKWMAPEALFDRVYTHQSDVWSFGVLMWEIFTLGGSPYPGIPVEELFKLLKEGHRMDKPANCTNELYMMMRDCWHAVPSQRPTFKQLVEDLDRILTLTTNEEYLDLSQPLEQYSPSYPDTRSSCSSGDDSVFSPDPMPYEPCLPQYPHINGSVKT

[29] = biological target: T2, D(4) dopamine receptor (Homo sapiens) (UniProt P21917); settings: Compound concentration 10.0 uM
T2 sequence (whole entry): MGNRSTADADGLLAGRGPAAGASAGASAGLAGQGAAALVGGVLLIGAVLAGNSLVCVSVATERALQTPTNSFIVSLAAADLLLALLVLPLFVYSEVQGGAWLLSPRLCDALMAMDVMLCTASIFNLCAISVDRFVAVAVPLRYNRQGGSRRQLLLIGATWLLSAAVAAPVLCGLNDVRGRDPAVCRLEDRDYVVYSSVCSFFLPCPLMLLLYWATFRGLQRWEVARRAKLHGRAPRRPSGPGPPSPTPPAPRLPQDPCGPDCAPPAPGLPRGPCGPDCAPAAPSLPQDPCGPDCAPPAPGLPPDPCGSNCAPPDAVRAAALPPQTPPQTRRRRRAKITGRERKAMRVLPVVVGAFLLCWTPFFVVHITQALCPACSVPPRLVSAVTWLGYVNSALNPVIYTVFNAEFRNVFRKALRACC

[30] = biological target: Serine/threonine-protein kinase PAK 1 (Homo sapiens) (UniProt Q13153); settings: Compound concentration 1000.0 nM
[31] = biological target: Ribosomal protein S6 kinase alpha-6 (Homo sapiens) (UniProt Q9UK32); settings: Compound concentration 1000.0 nM
Ribosomal protein S6 kinase alpha-6 (Homo sapiens), sequence (Q9UK32 whole entry): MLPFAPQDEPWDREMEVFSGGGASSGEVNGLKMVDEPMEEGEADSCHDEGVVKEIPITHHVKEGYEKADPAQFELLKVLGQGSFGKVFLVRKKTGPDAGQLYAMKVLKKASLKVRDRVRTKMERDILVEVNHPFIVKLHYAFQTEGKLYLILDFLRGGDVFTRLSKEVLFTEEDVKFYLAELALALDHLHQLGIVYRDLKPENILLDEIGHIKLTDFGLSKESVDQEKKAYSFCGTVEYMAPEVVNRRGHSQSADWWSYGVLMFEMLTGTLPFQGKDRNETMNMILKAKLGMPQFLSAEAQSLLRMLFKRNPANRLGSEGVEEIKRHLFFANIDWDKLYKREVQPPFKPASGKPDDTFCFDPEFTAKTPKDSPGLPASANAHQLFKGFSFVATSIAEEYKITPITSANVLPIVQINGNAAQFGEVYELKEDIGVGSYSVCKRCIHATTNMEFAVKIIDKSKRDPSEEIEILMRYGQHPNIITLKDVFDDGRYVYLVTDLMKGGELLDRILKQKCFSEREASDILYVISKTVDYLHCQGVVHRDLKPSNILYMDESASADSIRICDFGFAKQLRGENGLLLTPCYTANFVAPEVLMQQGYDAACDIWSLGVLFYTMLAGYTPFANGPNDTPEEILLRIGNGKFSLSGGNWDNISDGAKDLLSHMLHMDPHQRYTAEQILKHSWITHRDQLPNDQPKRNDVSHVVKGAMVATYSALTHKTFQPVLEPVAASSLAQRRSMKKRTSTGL

[32] = biological target: Inhibitor of nuclear factor kappa-B kinase subunit beta (Homo sapiens) (UniProt O14920); settings: Compound concentration 1000.0 nM
[33] = biological target: Serine/threonine-protein kinase MRCK gamma (Homo sapiens) (UniProt Q6DT37); settings: Compound concentration 1000.0 nM
[34] = biological target: Serine/threonine-protein kinase Nek7 (Homo sapiens) (UniProt Q8TDX7); settings: Compound concentration 1000.0 nM
Serine/threonine-protein kinase Nek7 (Homo sapiens), sequence (Q8TDX7 whole entry, looked up): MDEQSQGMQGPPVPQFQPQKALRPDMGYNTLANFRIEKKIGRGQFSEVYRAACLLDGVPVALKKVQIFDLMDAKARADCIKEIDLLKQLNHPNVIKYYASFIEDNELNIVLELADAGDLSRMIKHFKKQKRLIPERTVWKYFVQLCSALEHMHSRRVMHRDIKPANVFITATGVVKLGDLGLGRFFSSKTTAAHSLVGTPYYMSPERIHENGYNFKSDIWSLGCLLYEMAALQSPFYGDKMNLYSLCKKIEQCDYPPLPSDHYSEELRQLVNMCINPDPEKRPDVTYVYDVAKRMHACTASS

N#CC1(c2ccccn2)CCN(Cc2cc(C(=O)O)c(=O)n3ccccc23)CC1 [MSD-M1PAM]
inactive: residual activity [1] 89% | residual activity [2] 76% | inhibition [3] 21% | residual activity [4] 87% | residual activity [5] 100% | residual activity [6] 99% | residual activity [7] 100% | residual activity [8] 100% | residual activity [9] 100% | residual activity [10] 87% | residual activity [11] 100% | residual activity [12] 77% | residual activity [13] 100% | residual activity [14] 100% | residual activity [15] 84% | residual activity [16] 72% | residual activity [17] 83% | residual activity [18] 98% | residual activity [19] 100% | residual activity [20] 83% | residual activity [21] 85% | residual activity [22] 85% | residual activity [23] 95% | residual activity [24] 99% | residual activity [25] 74% | residual activity [26] 100% | residual activity [27] 87% | residual activity [28] 100% | inhibition [29] -8.33% | residual activity [30] 86% | residual activity [31] 97% | residual activity [32] 100% | residual activity [33] 100% | residual activity [34] 100%

N#CC1(c2ccccn2)CCN(Cc2cc(C(=O)N3CCCC3)c(=O)n3ccccc23)CC1
inactive: residual activity [1] 100% | residual activity [2] 92% | inhibition [3] 26.7% | residual activity [4] 87% | residual activity [5] 100% | residual activity [6] 79% | residual activity [7] 100% | residual activity [8] 92% | residual activity [9] 89% | residual activity [10] 90% | residual activity [11] 88% | residual activity [12] 100% | residual activity [13] 84% | residual activity [14] 91% | residual activity [15] 100% | residual activity [16] 100% | residual activity [17] 86% | residual activity [18] 100% | residual activity [19] 95% | residual activity [20] 84% | residual activity [21] 86% | residual activity [22] 100% | residual activity [23] 93% | residual activity [24] 85% | residual activity [25] 98% | residual activity [26] 82% | residual activity [27] 75% | residual activity [28] 91% | inhibition [29] -8.64% | residual activity [30] 100% | residual activity [31] 91% | residual activity [32] 99% | residual activity [33] 88% | residual activity [34] 82%
